Source: patent US8242113B2, “Oxazolidinone derivatives with cyclic amidoxime or cyclic amidrazone pharmaceutical compositions thereof” (Legochem Biosciences, Inc., priority 2008, dated 2012)
pIC50: −log10 of the molar value. Converted amounts (≈) assume the structure as drawn.

How the values were obtained:
[1] = Cytotoxicity measurement by MTT assay; type: cell-based; conditions: Chinese hamster
Description: The MTT assay is a […], colorimetric assay for mammalian cell survival and cell proliferation. It depends on the reduction of tetrazolium salt MTT by the mito-chondrial succinate dehrogenase of viable cells to form a blue formazan product. The assay measures cell respiration, and the amount of formazan product to the number of living cells present in culture. In this test, Chinese hamster ovary cells (CHO-K1) were purchased from ATCC (USA). Subcultured CHO cells were detached from the culture flask by treating with trypsin-EDTA solution, and seeded on a 96-well microplate, with 5000 cells per each well. After culturing for 24 hours in a 37° C., 5% CO2 incubator, the cells were treated with the oxazolidinone derivatives according to the present invention synthesized in the above examples, at 7 different concentrations. After further culturing for 48 hours in a 37° C., 5% CO2 incubator, 15 uL of […] MTT solution was added to each well. The cells were further incubated in the 37° C., 5% CO2 incubator for about 2 hours. Then, the culture medium was discarded and 100 uL of DMSO solution was added to each well. After agitating the microplate for 30 minutes, absorbance was measured at 550 nm using Spectramax plus 190 plate reader (Molecular Devices, USA). The absorbance decrease of the compound-treated groups compared to the non-treated control group is an indication of the decrease of surviving cells, which enables the measurement of the cytotoxicity of the compounds. The CC50 value, i.e., the concentration at which the cell proliferation is reduced to 50%, of the compounds according to the present invention was computed using the GraFit statistical analysis program (version 5.0.12) purchased from Erithacus Software after calculating the percentages of the absorbance at various concentrations as compared to the control group.

[2] = biological target: T1, monoamine oxidase A (MAO A) (Homo sapiens, UniProt P21397); assay: MAO inhibition (MAO-GLO assay); type: biochemical; conditions: MAO-GLO kit, compounds at 3.9-500 uM; read-out: MAOA
T1 construct: purchased Sigma-Aldrich (USA)
T1 sequence (P21397 1-527): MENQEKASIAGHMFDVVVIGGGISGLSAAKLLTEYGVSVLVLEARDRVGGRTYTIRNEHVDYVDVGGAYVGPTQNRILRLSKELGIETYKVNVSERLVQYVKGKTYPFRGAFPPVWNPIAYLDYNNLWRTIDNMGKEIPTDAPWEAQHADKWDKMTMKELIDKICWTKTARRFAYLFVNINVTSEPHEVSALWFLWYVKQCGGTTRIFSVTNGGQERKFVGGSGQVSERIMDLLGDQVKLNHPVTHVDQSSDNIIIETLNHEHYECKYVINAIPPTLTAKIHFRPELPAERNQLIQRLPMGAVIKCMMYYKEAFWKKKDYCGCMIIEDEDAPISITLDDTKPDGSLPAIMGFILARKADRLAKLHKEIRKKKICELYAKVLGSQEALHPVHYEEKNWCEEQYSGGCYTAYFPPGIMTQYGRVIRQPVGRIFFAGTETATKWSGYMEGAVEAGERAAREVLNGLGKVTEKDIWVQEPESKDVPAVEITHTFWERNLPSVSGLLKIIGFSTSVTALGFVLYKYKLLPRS
Protocol: (§1) The oxazolidinone derivatives according to the present invention synthesized in the examples were tested for inhibition of monoamine oxidase A (MAO A) and monoamine oxidase B (MAO B). MAO-GLO assay kit was purchased from Promega (USA) and MAO A and MAO B enzymes were purchased from Sigma-Aldrich (USA). From the aldehyde product resulting from the action of the MAO enzyme on the amine group of the substrate, luciferin methyl ester is produced. The luciferin detection reagent is then added to inactivate the MAO enzymes. The esterase and the luciferase included in the reagent oxidize luciferin, thereby emitting light. The light emission is detected to measure the activity of MAO. The light emission was detected using LEADseeker (Amershan Bioscience, Sweden). MAO activity was measured in the presence of the compounds according to the present invention at 3.9-500 uM and compared with the non-treated control group. Linezolid was used as a comparison compound. For the measurement of the MAO inhibition activity of the compounds represented by Chemical Formula 1, the IC50 value, i.e., the concentration of the compounds at which the enzymatic activity is inhibited by 50% (This value is related with the inhibition constant Ki), can be determined. The concentration of the inhibitor at which the rate of hydrolysis of the substrate is reduced to 50% (i.e., the IC50 value) can be determined from a log plot of the relative rate of hydrolysis (as compared to the non-inhibited control group) versus the concentration of the compounds of Chemical Formula 1.
(§2) The MAO inhibition effect of the compounds of Chemical Formula 1 was measured by determining the inhibition constant Ki. Ki=IC50/{1+(┌S┐/Km)} Equation 1
(§3) In Equation 1, Km is the Michaelis-Menten constant, i.e., the concentration of the substrate at which the rate of enzymatic reaction is half of the maximum, and IC50 is the concentration of the inhibitor at which the rate of the hydrolysis of the substrate is reduced by 50%. The IC50 value was measured by plotting a log plot of the relative rate of hydrolysis (as compared to the non-inhibited control group) versus the concentration of the compounds of Chemical Formula 1. GraFit statistical analysis program (version 5.0.12) purchased from Erithacus Software was used.

[3] = biological target: T2, monoamine oxidase B (MAO B) (Homo sapiens, UniProt P27338); assay: MAO inhibition (MAO-GLO assay); type: biochemical; conditions: MAO-GLO kit, compounds at 3.9-500 uM; read-out: MAOB
T2 construct: purchased Sigma-Aldrich (USA)
T2 sequence (P27338 1-520): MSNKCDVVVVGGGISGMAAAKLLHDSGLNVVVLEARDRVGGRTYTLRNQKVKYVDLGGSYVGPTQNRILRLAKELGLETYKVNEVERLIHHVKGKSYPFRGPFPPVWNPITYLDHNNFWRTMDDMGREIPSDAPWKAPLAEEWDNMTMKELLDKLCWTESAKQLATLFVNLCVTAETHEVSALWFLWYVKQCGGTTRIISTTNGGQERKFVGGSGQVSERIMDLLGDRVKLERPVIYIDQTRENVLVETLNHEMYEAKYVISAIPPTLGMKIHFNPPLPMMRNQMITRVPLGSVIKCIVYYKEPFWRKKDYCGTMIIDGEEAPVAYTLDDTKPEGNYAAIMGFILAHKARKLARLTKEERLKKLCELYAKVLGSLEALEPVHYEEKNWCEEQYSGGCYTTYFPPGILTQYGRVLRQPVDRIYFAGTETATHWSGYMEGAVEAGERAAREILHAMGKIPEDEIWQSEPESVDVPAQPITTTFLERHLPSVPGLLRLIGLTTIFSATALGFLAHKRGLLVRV
Protocol: as §1, §2, §3

[4] = test system: methicillin-resistant Staphylococcus aureus (MRSA); assay: In vitro antibacterial activity, broth microdilution (MIC90); conditions: read-out: Antibacterial activity MIC90, MRSA
Description: (§4) MIC90 measurement was made according to the broth microdilution method based on the CLSI document [Clinical and Laboratory Standards Institute Document.
(§5) The test compounds in DMSO solution were further diluted 20-fold with sterile distilled water.

[5] = test system: linezolid- and vancomycin-resistant Enterococcus faecalis (LVRE); assay: as above; conditions: read-out: Antibacterial activity MIC90, LVRE
Description: as §4, §5

Row | Compound | pIC50 [2] | pIC50 [3] | MIC90 [4] | MIC90 [5] | CC50 at 48 h [1] | MIC [5]
1 | CN1CCN(c2ccc(N3C[C@H](CNc4ccon4)OC3=O)cc2)C=N1 [Compound 101] | – | – | 1 µg/mL (≈ 2.81 µM) | – | – | 32 µg/mL (≈ 89.8 µM)
2 | O=CN1CCN(c2ccc(N3C[C@H](CNc4nccs4)OC3=O)cc2F)C=N1 [Compound 80] | – | – | 2 µg/mL (≈ 4.95 µM) | – | – | 16 µg/mL (≈ 39.6 µM)
3 | C=CCN1CCN(c2ccc(N3C[C@H](CNC(C)=O)OC3=O)cc2F)C=N1 [Compound 4] | – | – | 1 µg/mL (≈ 2.66 µM) | – | – | 8 µg/mL (≈ 21.3 µM)
4 | COC(=S)NC[C@H]1CN(c2ccc(N3C=NN(C)CC3)c(F)c2)C(=O)O1 [Compound 60] | – | – | 0.25 µg/mL (≈ 0.655 µM) | – | – | 2 µg/mL (≈ 5.24 µM)
5 | COC(=S)NC[C@H]1CN(c2ccc(N3C=NN(C4CCC4)CC3)c(F)c2)C(=O)O1 [Compound 68] | – | – | 0.25 µg/mL (≈ 0.593 µM) | – | – | 2 µg/mL (≈ 4.74 µM)
6 | O=CN1CCN(c2ccc(N3C[C@H](Cn4ccnn4)OC3=O)cc2F)C=N1 [Compound 81] | – | – | 1 µg/mL (≈ 2.68 µM) | – | – | 16 µg/mL (≈ 42.9 µM)
7 | O=CN1CCN(c2ccc(N3C[C@H](CNC(=O)C(F)F)OC3=O)cc2F)C=N1 [Compound 45] | – | – | 1 µg/mL (≈ 2.5 µM) | – | – | 4 µg/mL (≈ 10 µM)
8 | CCN1CCN(c2ccc(N3C[C@H](CNC(=S)OC)OC3=O)cc2F)C=N1 [Compound 61] | – | – | 0.5 µg/mL (≈ 1.26 µM) | – | – | 4 µg/mL (≈ 10.1 µM)
9 | O=CN1CCN(c2ccc(N3C[C@H](CNc4ccon4)OC3=O)cc2F)C=N1 [Compound 85] | – | – | 0.5 µg/mL (≈ 1.29 µM) | – | – | 16 µg/mL (≈ 41.2 µM)
10 | CC(=O)NC[C@H]1CN(c2ccc(N3C=NN(C4CCC4)CC3)c(F)c2)C(=O)O1 [Compound 41] | – | – | 2 µg/mL (≈ 5.14 µM) | – | – | 4 µg/mL (≈ 10.3 µM)
11 | C#CCN1CCN(c2ccc(N3C[C@H](CNC(=O)C(F)F)OC3=O)cc2F)C=N1 [Compound 49] | – | – | 1 µg/mL (≈ 2.44 µM) | – | – | 8 µg/mL (≈ 19.5 µM)

Further lines, with some results ahead:

Row | pIC50 [2] | pIC50 [3] | MIC90 [4] | MIC90 [5] | Compound | CC50 at 48 h [1] | MIC [5]
12 | 5.10 | 5.37 | 2 µg/mL (≈ 5.93 µM) | 32 µg/mL (≈ 94.9 µM) | CC(=O)NC[C@H]1CN(c2ccc(N3CCOCC3)c(F)c2)C(=O)O1 [Linezolid, linezolid, reference compound] | > 130 µM | –
13 | – | – | 0.5 µg/mL (≈ 1.13 µM) | – | COC(=S)NC[C@H]1CN(c2ccc(N3C=NN(C(=S)OC)CC3)c(F)c2)C(=O)O1 [Compound 72] | – | 2 µg/mL (≈ 4.53 µM)
14 | – | – | 0.5 µg/mL (≈ 1.27 µM) | – | CC(=O)NC[C@H]1CN(c2ccc(N3C=NN(C(N)=S)CC3)c(F)c2)C(=O)O1 [Compound 29] | – | 4 µg/mL (≈ 10.1 µM)
15 | – | – | 4 µg/mL (≈ 10.2 µM) | – | CC(=O)NC[C@H]1CN(c2ccc(N3C=NN(CC(C)O)CC3)c(F)c2)C(=O)O1 (stereo partly shown) [Compound 38] | – | 8 µg/mL (≈ 20.3 µM)
16 | – | – | 2 µg/mL (≈ 4.93 µM) | – | CC(=O)NC[C@H]1CN(c2ccc(N3C=NN(C(=O)C(C)=O)CC3)c(F)c2)C(=O)O1 [Compound 36] | – | 8 µg/mL (≈ 19.7 µM)
17 | – | – | 0.5 µg/mL (≈ 1.07 µM) | – | COC(=S)NC[C@H]1CN(c2ccc(N3C=NN(C(=O)COC(C)=O)CC3)c(F)c2)C(=O)O1 [Compound 59] | – | 2 µg/mL (≈ 4.28 µM)
